Data taken from patent US10919935B2, “Antimicrobial peptide derived from myxinidin peptide and uses thereof” (INDUSTRY-ACADEMIC COOPERATION FOUNDATION, CHOSUN UNIVERSITY, priority 2015, dated 2021).
Residues, ends and D or L forms follow the SMILES beside them.

How the values were obtained:
S. typhimurium 8009 = test: MIC at salt concentration (Example 3); format: cell-based, Salmonella typhimurium
Procedure: (§1) To compare the antimicrobial activity of the peptide produced by the method of Example 1, the inventors of the present invention measured the minimum growth inhibitory concentration (MIC), which is minimum concentration of the peptide showing no dissociation of bacterial cells, at salt concentration.
(§2) Specifically, the bacterial strain described in the above Table 2 was cultured in each medium to a mid-log phase. Then, after dilution to bacterial cell concentration of 2×10^5 cells/100 μl, the cells were inoculated to a microtiter plate (NUNC, USA). Thereafter, myxinidin 1, myxinidin 2, or myxinidin 3 peptides which have been synthesized in Example 1 above was diluted, 1/2 times for each, with BSA+150 mM sodium chloride (NaCl) solution, physiological saline (PBS) solution, or 10 mM sodium phosphate (SP) solution in a 96-well plate. After adding the cells to a plate, the cells were cultured for 12 hours at 37° C. By using a microtiter plate reader (Merck Elisa reader, Germany), the absorbance was measured at a wavelength of 600 nm to determine the MIC value of each bacterial strain. As a control group, myxinidin as a mother peptide was subjected to the same processes as above and the MIC value of each bacterial strain was obtained.

S. typhimurium 8013 = test: MIC at salt concentration (Example 3); format: cell-based, Salmonella typhimurium
Procedure: as §1, §2

S. typhimurium = test: MIC at salt concentration (Example 3); format: cell-based, Salmonella typhimurium
Procedure: as §1, §2

S. aureus 3114 = test: MIC at salt concentration (Example 3); format: cell-based, Staphylococcus aureus
Procedure: as §1, §2

S. aureus 3709 = test: MIC at salt concentration (Example 3); format: cell-based, Staphylococcus aureus
Procedure: as §1, §2

S. aureus [1] = test: MIC at salt concentration (Example 3); format: cell-based, Staphylococcus aureus
Procedure: as §1, §2

L. monocytogenes [2] = test: MIC at salt concentration (Example 3); format: cell-based, Listeria monocytogenes
Procedure: as §1, §2

Escherichia coli 1229 = test: MIC at salt concentration (Example 3); format: cell-based
Procedure: as §1, §2

P. aeruginosa 3592 = test: MIC at salt concentration (Example 3); format: cell-based, Pseudomonas aeruginosa
Procedure: as §1, §2

P. aeruginosa 5018 = test: MIC at salt concentration (Example 3); format: cell-based, Pseudomonas aeruginosa
Procedure: as §1, §2

P. aeruginosa [3] = test: MIC at salt concentration (Example 3); format: cell-based, Pseudomonas aeruginosa
Procedure: as §1, §2

P. aeruginosa [4] = test: Anti-biofilm activity (crystal violet); format: cell-based, Pseudomonas aeruginosa
Procedure: (§3) To compare the antimicrobial activity of the peptide produced by the method of Example 1, the inventors of the present invention measured the biofilm inhibitory concentration value of the peptide showing no dissociation of bacterial cells.
(§4) Specifically, the Gram-negative bacteria and Gram-positive bacteria among the bacterial strains described in the above Table 2 were cultured in each medium to a mid-log phase. Then, after dilution to bacterial cell concentration of 5×10^5 cells/100 μl, the cells were inoculated to a microtiter plate (NUNC, USA). Thereafter, myxinidin 1, myxinidin 2, or myxinidin 3 peptides which have been synthesized in Example 1 above was diluted, 1/10 times for each, with physiological saline (PBS) solution in a 96-well plate. After adding the cells to a plate, the cells were cultured for 12 hours at 37° C. After removing the supernatant, the cells were fixed with 100% methanol and reacted for 2 hours with Crystal violet staining solution followed by rinsing for 3 times. Then, after dissolving in 95% ethanol, the absorbance was measured at a wavelength of 595 nm by using a microtiter plate reader (Merck Elisa reader, Germany) to determine the biofilm inhibitory concentration value of each bacterial strain. As a control group, myxinidin as a mother peptide was subjected to the same processes as above and the biofilm inhibitory concentration value of each bacterial strain was obtained.

S. aureus [5] = test: Anti-biofilm activity (crystal violet); format: cell-based, Staphylococcus aureus
Procedure: as §3, §4

L. monocytogenes [6] = test: Anti-biofilm activity (crystal violet); format: cell-based, Listeria monocytogenes
Procedure: as §3, §4

in vitro = format: cell-based; details: human, NHK cells (normal human keratinocytes)
Procedure: To determine the cytotoxicity of the peptide produced by the method of Example 1 in normal cell line, toxicity was measured by using NHK cells (Normal Human Keratinocyte cells).
Specifically, NHK cells which have been cultured in Epilife medium with 60 μM calcium (Gibco, USA) containing 10% HKGS (Human Keratinocyte Growth Supplement) (Gibco, USA) were aliquoted in a 96-well plate to have 1×10^4 cells per well. After culturing them for 24 hours, the cells were subjected to a treatment with myxinidin, myxinidin 1, myxinidin 2, or myxinidin 3 peptide, each at concentration of 3.125, 6.25, 12.5, or 25.0 μM/well, followed by reaction for 24 hours in a 5% CO2 incubator. After the culture, a reaction solution containing 5 mg/ml MTT (Thiazolyl Blue Tetrazolium Bromide) dissolved in physiological saline (PBS) was added in an amount of 20 μl to each well and allowed to react for 4 hours. After that, the supernatant was removed, and, by dissolving MTT crystals that are formed by adding 200 μl of DMSO, the absorbance at 560 nm was measured to determine the cell survival ability.

[7] = NaCl (BSA+150 mM sodium chloride)

For `CC[C@H](C)[C@H](NC(=O)[C@H](Cc1c[nH]c2ccccc12)NC(=O)[C@H](CCCCN)NC(=O)[C@@H](NC(=O)[C@@H](N)CCCCN)[C@@H](C)CC)C(=O)N[C@@H](CC(C)C)C(=O)N[C@@H](CCCCN)C(=O)N[C@@H](Cc1ccc(O)cc1)C(=O)N[C@@H](Cc1c[nH]c2ccccc12)C(=O)N[C@@H](CCCCN)C(=O)N[C@@H](Cc1c[nH]c2ccccc12)C(=O)N[C@@H](CO)C(N)=O` [Myxinidin 2, KIKWILKYWKWS-NH2] (H-KIKWILKYWKWS-NH2; N-terminus assumed), the “Antimicrobial activity (MIC) according to salt concentration” value (from here on “Antimicrobial activity (MIC) according”) (S. typhimurium 8009; [7]) was 8, the “Antimicrobial activity (MIC) according” value (S. typhimurium 8009; PBS) was 4 and the “Antimicrobial activity (MIC) according” value (S. typhimurium 8009; SP (10 mM sodium phosphate)) was 4. For the same molecule, the “Antimicrobial activity (MIC) according” value (S. typhimurium 8013; [7]) was 32, the “Antimicrobial activity (MIC) according” value (S. typhimurium 8013; PBS) was 8 and the “Antimicrobial activity (MIC) according” value (S. typhimurium 8013; SP (10 mM sodium phosphate)) was 4. The “Antimicrobial activity (MIC) according” value (S. typhimurium; [7]) was 2, the “Antimicrobial activity (MIC) according” value (S. typhimurium; PBS) was 4 and the “Antimicrobial activity (MIC) according” value (S. typhimurium; SP (10 mM sodium phosphate)) was 2. The “Antimicrobial activity (MIC) according” value (S. aureus 3114; [7]) was greater than 32, the “Antimicrobial activity (MIC) according” value (S. aureus 3114; PBS) was 16 and the “Antimicrobial activity (MIC) according” value (S. aureus 3114; SP (10 mM sodium phosphate)) was 8. For the same molecule, the “Antimicrobial activity (MIC) according” value (S. aureus 3709; [7]) was 8, the “Antimicrobial activity (MIC) according” value (S. aureus 3709; PBS) was 8 and the “Antimicrobial activity (MIC) according” value (S. aureus 3709; SP (10 mM sodium phosphate)) was 4. The “Antimicrobial activity (MIC) according” value (S. aureus [1]; [7]) was 0.25, the “Antimicrobial activity (MIC) according” value (S. aureus [1]; PBS) was 1 and the “Antimicrobial activity (MIC) according” value (S. aureus [1]; SP (10 mM sodium phosphate)) was 1. For the same molecule, the “Antimicrobial activity (MIC) according” value (L. monocytogenes [2]; [7]) was 4, the “Antimicrobial activity (MIC) according” value (L. monocytogenes [2]; PBS) was 8 and the “Antimicrobial activity (MIC) according” value (L. monocytogenes [2]; SP (10 mM sodium phosphate)) was 8. For the same molecule, the “Antimicrobial activity (MIC) according” value (Escherichia coli 1229; [7]) was 8, the “Antimicrobial activity (MIC) according” value (Escherichia coli 1229; PBS) was 2 and the “Antimicrobial activity (MIC) according” value (Escherichia coli 1229; SP (10 mM sodium phosphate)) was 2. The “Antimicrobial activity (MIC) according” value (P. aeruginosa 3592; [7]) was 16, the “Antimicrobial activity (MIC) according” value (P. aeruginosa 3592; PBS) was 8 and the “Antimicrobial activity (MIC) according” value (P. aeruginosa 3592; SP (10 mM sodium phosphate)) was 8. The “Antimicrobial activity (MIC) according” value (P. aeruginosa 5018; [7]) was 16, the “Antimicrobial activity (MIC) according” value (P. aeruginosa 5018; PBS) was 4 and the “Antimicrobial activity (MIC) according” value (P. aeruginosa 5018; SP (10 mM sodium phosphate)) was 2. For the same molecule, the “Antimicrobial activity (MIC) according” value (P. aeruginosa [3]; [7]) was 8, the “Antimicrobial activity (MIC) according” value (P. aeruginosa [3]; PBS) was 4 and the “Antimicrobial activity (MIC) according” value (P. aeruginosa [3]; SP (10 mM sodium phosphate)) was 8. For the same molecule, the Biofilm forming ability (P. aeruginosa [4]; peptide 0.25 μM) was 100%, the Biofilm forming ability (P. aeruginosa [4]; peptide 0.5 μM) was 98% and the Biofilm forming ability (P. aeruginosa [4]; peptide 1 μM) was 95%. The Biofilm forming ability (P. aeruginosa [4]; peptide 2 μM) was 83%, the Biofilm forming ability (P. aeruginosa [4]; peptide 4 μM) was 29% and the Biofilm forming ability (P. aeruginosa [4]; peptide 8 μM) was 13%. For the same molecule, the Biofilm forming ability (P. aeruginosa [4]; peptide 16 μM) was 5%, the Biofilm forming ability (P. aeruginosa [4]; peptide 32 μM) was 5% and the Biofilm forming ability (S. aureus [5]; peptide 0.25 μM) was 100%. For the same molecule, the Biofilm forming ability (S. aureus [5]; peptide 0.5 μM) was 97%, the Biofilm forming ability (S. aureus [5]; peptide 1 μM) was 97% and the Biofilm forming ability (S. aureus [5]; peptide 2 μM) was 97%. For the same molecule, the Biofilm forming ability (S. aureus [5]; peptide 4 μM) was 93%, the Biofilm forming ability (S. aureus [5]; peptide 8 μM) was 89% and the Biofilm forming ability (S. aureus [5]; peptide 16 μM) was 24%. For the same molecule, the Biofilm forming ability (S. aureus [5]; peptide 32 μM) was 15%, the Biofilm forming ability (L. monocytogenes [6]; peptide 0.25 μM) was 100% and the Biofilm forming ability (L. monocytogenes [6]; peptide 0.5 μM) was 100%. For the same molecule, the Biofilm forming ability (L. monocytogenes [6]; peptide 1 μM) was 100%, the Biofilm forming ability (L. monocytogenes [6]; peptide 2 μM) was 100% and the Biofilm forming ability (L. monocytogenes [6]; peptide 4 μM) was 99%. For the same molecule, the Biofilm forming ability (L. monocytogenes [6]; peptide 8 μM) was 93%, the Biofilm forming ability (L. monocytogenes [6]; peptide 16 μM) was 45% and the Biofilm forming ability (L. monocytogenes [6]; peptide 32 μM) was 33%. For the same molecule, the viability at 24 h, 3.125 µM (in vitro) was 100%, the viability at 24 h, 6.25 µM (in vitro) was 100% and the viability at 24 h, 12.5 µM (in vitro) was 98%. The viability at 24 h, 25 µM (in vitro) was 75%.
